From US11066425B1, “Oxo-substituted compound” (SUMITOMO DAINIPPON PHARMA CO., LTD., priority 2018, dated 2021) come the findings set out here.

Structures can show the parent of a compound that is named as a salt.

This test has as its system β-lactamase producing bacteria. The test can be described thus: Test Example 1: MIC of meropenem (MEPM) combined with test compound at fixed 4 μg/mL, broth microdilution. Format: cell-based. The settings on record: relative to MEPM alone. As for the experimental part: Test Example 1: Evaluation of Minimum Inhibitory Concentration (MIC) of MEPM Against β-Lactamase Producing Bacteria
To evaluate the β-lactamase inhibitory activity of test compounds, the effect of combination of a test compound and a β-lactam agent against β-lactamase producing bacteria was evaluated. Meropenem (MEPM) was used as a β-lactam antimicrobial agent. The minimum inhibitory concentration (MIC) of MEPM against β-lactamase producing bacteria when a test compound was added at a fixed concentration (4 μg/mL) was measured by broth microdilution method (common ratio: 2). MIC of MEPM decreasing to less than 1/32 in combination with a test compound is indicated by A, decreasing from 1/32 to 1/16 is indicated by B, decreasing from ⅛ to ¼ is indicated by C, and decreasing to ½ or others are indicated by D. “-” represents untested cases.

For the compound `Cl.O=C(O)c1c(OC2CN(C(=O)c3ccccn3)C2)ccc2c1OB(O)CC2` [Example 6, 2-hydroxy-7-{[1-(pyridine-2-carbonyl)azetidin-3-yl]oxy}-3,4-dihydro-2H-1,2-benzoxaborinine-8-carboxylic acid hydrochloride], the “Decrease of MIC of MEPM in combination with a test compound, E. coli ATCC BAA-2340 (KPC)” value (shortened to “Decrease of MIC … E. coli ATCC BAA-2340 (KPC)”) is “A (MIC of MEPM decreasing to less than 1/32 in combination with a test compound is indicated by A)”; the “Decrease of MIC of MEPM in combination with a test compound, K. pneumoniae ATCC BAA-2344 (KPC)” value (“Decrease … K. pneumoniae ATCC BAA-2344 (KPC)” for short) is “A (MIC of MEPM decreasing to less than 1/32 in combination with a test compound is indicated by A)”; the “Decrease of MIC of MEPM in combination with a test compound, K. pneumoniae ATCC BAA-2524 (OXA-48)” value (from here on “Decrease of MIC of MEPM … (OXA-48)”) was “B (decreasing from 1/32 to 1/16 is indicated by B)”.

As to `CSCC(=O)N1CC(Oc2ccc3c(c2C(=O)O)O[B-](O)(O)CC3)C1` [Example 7, 4,4-dihydroxy-8-({1-[(methylsulfanyl)acetyl]azetidin-3-yl}oxy)-5-oxa-4-boranuidabicyclo[4.4.0]deca-l(6),7,9-triene-7-carboxylic acid disodium salt], the “Decrease of MIC … E. coli ATCC BAA-2340 (KPC)” value is “A (MIC of MEPM decreasing to less than 1/32 in combination with a test compound is indicated by A)”; the “Decrease … K. pneumoniae ATCC BAA-2344 (KPC)” value is reported as “A (MIC of MEPM decreasing to less than 1/32 in combination with a test compound is indicated by A)”; the “Decrease of MIC of MEPM … (OXA-48)” value is given as “B (decreasing from 1/32 to 1/16 is indicated by B)”.

`O=C(O)c1c(OC2CN(C(=O)c3nc[nH]n3)C2)ccc2c1O[B-](O)(O)CC2` [Example 8, 4,4-dihydroxy-8-{[1-(1H-1,2,4-triazole-3-carbonyl)azetidin-3-yl]oxy}-5-oxa-4-boranuidabicyclo[4.4.0]deca-l(6),7,9-triene-7-carboxylic acid disodium salt]: the “Decrease of MIC … E. coli ATCC BAA-2340 (KPC)” value is reported as “A (MIC of MEPM decreasing to less than 1/32 in combination with a test compound is indicated by A)”; the “Decrease … K. pneumoniae ATCC BAA-2344 (KPC)” value was “A (MIC of MEPM decreasing to less than 1/32 in combination with a test compound is indicated by A)”; the “Decrease of MIC of MEPM … (OXA-48)” value is “B (decreasing from 1/32 to 1/16 is indicated by B)”.

For `O=C(O)c1c(OC2CN(C(=O)c3cccc[n+]3[O-])C2)ccc2c1O[B-](O)(O)CC2` [Example 9, 4,4-dihydroxy-8-{[1-(1-oxido-2-pyridinylcarbonyl)azetidin-3-yl]oxy}-5-oxa-4-boranuidabicyclo[4.4.0]deca-l(6),7,9-triene-7-carboxylic acid disodium salt], the “Decrease of MIC … E. coli ATCC BAA-2340 (KPC)” value is recorded as “A (MIC of MEPM decreasing to less than 1/32 in combination with a test compound is indicated by A)”; the “Decrease … K. pneumoniae ATCC BAA-2344 (KPC)” value was “A (MIC of MEPM decreasing to less than 1/32 in combination with a test compound is indicated by A)”; the “Decrease of MIC of MEPM … (OXA-48)” value is listed as “A (MIC of MEPM decreasing to less than 1/32 in combination with a test compound is indicated by A)”.

Take `N[C@@H](C(=O)N1CC(Oc2ccc3c(c2C(=O)O)O[B-](O)(O)CC3)C1)c1ccccc1` [Example 10, 8-({1-[(2R)-2-amino-2-phenylacetyl]azetidin-3-yl}oxy)-4,4-dihydroxy-5-oxa-4-boranuidabicyclo[4.4.0]deca-l(6),7,9-triene-7-carboxylic acid disodium salt]: the “Decrease of MIC … E. coli ATCC BAA-2340 (KPC)” value is “A (MIC of MEPM decreasing to less than 1/32 in combination with a test compound is indicated by A)”; the “Decrease … K. pneumoniae ATCC BAA-2344 (KPC)” value is “A (MIC of MEPM decreasing to less than 1/32 in combination with a test compound is indicated by A)”; the “Decrease of MIC of MEPM … (OXA-48)” value is reported as “B (decreasing from 1/32 to 1/16 is indicated by B)”.

`O=C(O)c1c(OC2CN(C(=O)c3ccccc3)C2)ccc2c1O[B-](O)(O)CC2` [Example 11, 8-[(1-benzoylazetidin-3-yl)oxy]-4,4-dihydroxy-5-oxa-4-boranuidabicyclo[4.4.0]deca-l(6),7,9-triene-7-carboxylic acid disodium salt]: the “Decrease of MIC … E. coli ATCC BAA-2340 (KPC)” value is on record as “A (MIC of MEPM decreasing to less than 1/32 in combination with a test compound is indicated by A)”; the “Decrease … K. pneumoniae ATCC BAA-2344 (KPC)” value is “B (decreasing from 1/32 to 1/16 is indicated by B)”; the “Decrease of MIC of MEPM … (OXA-48)” value is on record as “B (decreasing from 1/32 to 1/16 is indicated by B)”.

Consider `O=C(O)c1c(OC2CN(C(=O)c3cccnc3)C2)ccc2c1O[B-](O)(O)CC2` [Example 12, 4,4-dihydroxy-8-{[1-(pyridine-3-carbonyl)azetidin-3-yl]oxy}-5-oxa-4-boranuidabicyclo[4.4.0]deca-l(6),7,9-triene-7-carboxylic acid disodium salt], for which the “Decrease of MIC … E. coli ATCC BAA-2340 (KPC)” value was “A (MIC of MEPM decreasing to less than 1/32 in combination with a test compound is indicated by A)”; the “Decrease … K. pneumoniae ATCC BAA-2344 (KPC)” value was “A (MIC of MEPM decreasing to less than 1/32 in combination with a test compound is indicated by A)”; the “Decrease of MIC of MEPM … (OXA-48)” value is “B (decreasing from 1/32 to 1/16 is indicated by B)”.

Turning to `O=C(O)c1c(OC2CN(C(=O)Cc3ccccn3)C2)ccc2c1O[B-](O)(O)CC2` [Example 13, 4,4-dihydroxy-8-({1-[(pyridin-2-yl)acetyl]azetidin-3-yl}oxy)-5-oxa-4-boranuidabicyclo[4.4.0]deca-l(6),7,9-triene-7-carboxylic acid disodium salt], the “Decrease of MIC … E. coli ATCC BAA-2340 (KPC)” value is reported as “A (MIC of MEPM decreasing to less than 1/32 in combination with a test compound is indicated by A)”; the “Decrease … K. pneumoniae ATCC BAA-2344 (KPC)” value was “A (MIC of MEPM decreasing to less than 1/32 in combination with a test compound is indicated by A)”; the “Decrease of MIC of MEPM … (OXA-48)” value was “B (decreasing from 1/32 to 1/16 is indicated by B)”.

For the compound `O=C(O)c1c(OC2CN(C(=O)Cc3cccnc3)C2)ccc2c1O[B-](O)(O)CC2` [Example 14, 4,4-dihydroxy-8-({1-[(pyridin-3-yl)acetyl]azetidin-3-yl}oxy)-5-oxa-4-boranuidabicyclo[4.4.0]deca-l(6),7,9-triene-7-carboxylic acid disodium salt], the “Decrease of MIC … E. coli ATCC BAA-2340 (KPC)” value was “A (MIC of MEPM decreasing to less than 1/32 in combination with a test compound is indicated by A)”; the “Decrease … K. pneumoniae ATCC BAA-2344 (KPC)” value is “A (MIC of MEPM decreasing to less than 1/32 in combination with a test compound is indicated by A)”; the “Decrease of MIC of MEPM … (OXA-48)” value is reported as “B (decreasing from 1/32 to 1/16 is indicated by B)”.

Consider `N[C@H](C(=O)N1CC(Oc2ccc3c(c2C(=O)O)O[B-](O)(O)CC3)C1)c1ccccc1` [Example 15, 8-({1-[(2S)-2-amino-2-phenylacetyl]azetidin-3-yl}oxy)-4,4-dihydroxy-5-oxa-4-boranuidabicyclo[4.4.0]deca-l(6),7,9-triene-7-carboxylic acid disodium salt], for which the “Decrease of MIC … E. coli ATCC BAA-2340 (KPC)” value was “A (MIC of MEPM decreasing to less than 1/32 in combination with a test compound is indicated by A)”; the “Decrease … K. pneumoniae ATCC BAA-2344 (KPC)” value is listed as “A (MIC of MEPM decreasing to less than 1/32 in combination with a test compound is indicated by A)”; the “Decrease of MIC of MEPM … (OXA-48)” value is recorded as “B (decreasing from 1/32 to 1/16 is indicated by B)”.

For `O=C(O)c1c(OC2CN(C(=O)Cc3ccncc3)C2)ccc2c1O[B-](O)(O)CC2` [Example 16, 4,4-dihydroxy-8-({1-[(pyridin-4-yl)acetyl]azetidin-3-yl}oxy)-5-oxa-4-boranuidabicyclo[4.4.0]deca-l(6),7,9-triene-7-carboxylic acid disodium salt], the “Decrease of MIC … E. coli ATCC BAA-2340 (KPC)” value is given as “A (MIC of MEPM decreasing to less than 1/32 in combination with a test compound is indicated by A)” and the “Decrease of MIC of MEPM … (OXA-48)” value is “B (decreasing from 1/32 to 1/16 is indicated by B)”.

Consider `O=C(O)c1c(OC2CN(C(=O)Cc3ccc(O)cc3)C2)ccc2c1O[B-](O)(O)CC2` [Example 17, 4,4-dihydroxy-8-({1-[(4-hydroxyphenyl)acetyl]azetidin-3-yl}oxy)-5-oxa-4-boranuidabicyclo[4.4.0]deca-l(6),7,9-triene-7-carboxylic acid disodium salt], for which the “Decrease of MIC … E. coli ATCC BAA-2340 (KPC)” value was “A (MIC of MEPM decreasing to less than 1/32 in combination with a test compound is indicated by A)”; the “Decrease … K. pneumoniae ATCC BAA-2344 (KPC)” value is reported as “B (decreasing from 1/32 to 1/16 is indicated by B)”; the “Decrease of MIC of MEPM … (OXA-48)” value is “B (decreasing from 1/32 to 1/16 is indicated by B)”.

For `O=C(O)c1c(OC2CN(C(=O)Cn3cncn3)C2)ccc2c1O[B-](O)(O)CC2` [Example 18, 4,4-dihydroxy-8-({1-[(1H-1,2,4-triazol-1-yl)acetyl]azetidin-3-yl}oxy)-5-oxa-4-boranuidabicyclo[4.4.0]deca-l(6),7,9-triene-7-carboxylic acid disodium salt], the “Decrease of MIC … E. coli ATCC BAA-2340 (KPC)” value is recorded as “A (MIC of MEPM decreasing to less than 1/32 in combination with a test compound is indicated by A)”; the “Decrease … K. pneumoniae ATCC BAA-2344 (KPC)” value is “A (MIC of MEPM decreasing to less than 1/32 in combination with a test compound is indicated by A)”; the “Decrease of MIC of MEPM … (OXA-48)” value is “B (decreasing from 1/32 to 1/16 is indicated by B)”.
